Data: paper PMC11413451 (Frontiers in Cell and Developmental Biology, 2024)
Read-outs that look alike come from different tables or passages of the source.

Tests used:
[1] = target: T1, human Slo3 (Homo sapiens, UniProt A8MYU2); assay: Whole-cell patch-clamp of Slo3 currents in CHO cells co-expressing human Slo3 and LRRC52; format: cell-based
T1 construct: expressed in transfected cells; host or cells: CHO cells, transient co-transfection with pcDNA3.1(+) vectors
T1 sequence (A8MYU2 1-1149): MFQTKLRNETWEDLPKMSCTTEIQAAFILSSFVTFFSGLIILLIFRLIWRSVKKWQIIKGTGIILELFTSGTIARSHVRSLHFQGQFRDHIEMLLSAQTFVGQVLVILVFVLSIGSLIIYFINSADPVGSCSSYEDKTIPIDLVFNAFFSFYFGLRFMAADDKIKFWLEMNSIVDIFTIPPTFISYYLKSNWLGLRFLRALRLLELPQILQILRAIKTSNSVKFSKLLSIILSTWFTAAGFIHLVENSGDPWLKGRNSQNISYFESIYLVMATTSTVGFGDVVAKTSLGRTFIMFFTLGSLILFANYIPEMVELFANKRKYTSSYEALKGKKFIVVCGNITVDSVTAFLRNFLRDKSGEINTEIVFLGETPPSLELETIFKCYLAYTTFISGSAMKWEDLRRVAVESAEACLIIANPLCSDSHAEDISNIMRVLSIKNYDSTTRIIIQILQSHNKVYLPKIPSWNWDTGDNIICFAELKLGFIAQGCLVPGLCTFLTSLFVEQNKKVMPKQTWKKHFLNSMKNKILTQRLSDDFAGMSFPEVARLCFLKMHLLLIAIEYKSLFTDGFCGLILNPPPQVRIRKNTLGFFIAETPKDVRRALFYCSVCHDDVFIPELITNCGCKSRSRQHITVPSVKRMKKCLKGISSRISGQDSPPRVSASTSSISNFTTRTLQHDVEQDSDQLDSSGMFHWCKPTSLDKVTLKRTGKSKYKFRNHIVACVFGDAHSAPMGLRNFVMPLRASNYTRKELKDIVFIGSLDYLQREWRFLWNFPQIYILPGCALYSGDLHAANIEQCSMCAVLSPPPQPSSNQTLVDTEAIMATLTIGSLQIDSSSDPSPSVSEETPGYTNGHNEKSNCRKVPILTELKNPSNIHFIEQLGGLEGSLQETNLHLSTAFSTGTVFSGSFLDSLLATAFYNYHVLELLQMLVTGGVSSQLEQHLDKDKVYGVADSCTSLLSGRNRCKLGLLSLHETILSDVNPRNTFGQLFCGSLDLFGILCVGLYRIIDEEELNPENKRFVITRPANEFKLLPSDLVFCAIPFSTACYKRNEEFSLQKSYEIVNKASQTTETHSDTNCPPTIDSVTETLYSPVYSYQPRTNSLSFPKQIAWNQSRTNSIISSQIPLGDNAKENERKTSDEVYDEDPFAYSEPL
T1 sequence (Q8N7C0 24-313 partner): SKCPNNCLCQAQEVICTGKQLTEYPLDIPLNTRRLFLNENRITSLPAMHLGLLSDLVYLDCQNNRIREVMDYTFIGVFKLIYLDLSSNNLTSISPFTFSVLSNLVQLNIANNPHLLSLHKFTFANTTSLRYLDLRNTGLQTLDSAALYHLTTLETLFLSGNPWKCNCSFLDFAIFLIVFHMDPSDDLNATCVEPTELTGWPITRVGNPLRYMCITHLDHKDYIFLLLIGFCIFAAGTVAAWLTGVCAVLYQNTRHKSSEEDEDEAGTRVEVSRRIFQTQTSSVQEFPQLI

[2] = test system: CatSper; settings: relative to progesterone; cited from earlier work
[3] = dose-response, Hill fit, mean ± SD, read-out: IC50 for inhibition of Slo3
[4] = 50 µM prostaglandin, n = 3, in range of current rundown

SMILES | decrease of Slo3 current amplitude ([1]; 50 μM steroid, +100 mV, n ≥ 3) | also measured
CC(=O)[C@@]1(O)CC[C@H]2[C@@H]3CC=C4C[C@@H](O)CC[C@]4(C)[C@H]3CC[C@@]21C [17α-hydroxypregnenolone] | ≤ 18% | –
CC(=O)C1(O)CCC2C3CCC4=CC(=O)CCC4(C)C3CCC21C (stereo not drawn) [17α-hydroxyprogesterone] | significantly decreased | IC50 [1, 3]: 27 ± 10 µM
C[C@]12CC[C@H](O)CC1=CC[C@@H]1[C@@H]2CC[C@]2(C)C(=O)CC[C@@H]12 [DHEA, dehydroepiandrosterone] | significantly decreased | IC50 [1]: 41 ± 4 µM
CCCCC[C@H](O)/C=C/[C@H]1[C@H](O)CC(=O)[C@@H]1CCCCCCC(=O)O [PGE1, prostagladin E1] | – | decrease of Slo3 current amplitude [1, 4]: 18 ± 7%
CCCCC[C@H](O)/C=C/[C@H]1[C@H](O)CC(=O)[C@@H]1C/C=C\CCCC(=O)O [PGE2, prostaglandin E2] | – | decrease of Slo3 current amplitude [1, 4]: 7 ± 7%
[Zn+2] [Zn^2+] | – | decrease of Slo3 current amplitude ([1]; 1 mM Zn^2+, n = 4, in range of current rundown): 14 ± 13%
C[C@]12CC[C@H]3[C@@H](CC=C4C[C@@H](O)CC[C@@]43C)[C@@H]1CC[C@@H]2O [androstenediol] | ≤ 18% | –
C[C@]12CCC(=O)C=C1CC[C@@H]1[C@@H]2CC[C@]2(C)C(=O)CC[C@@H]12 [androstenedione] | ≤ 18% | –
CCCCC/C=C\C/C=C\C/C=C\C/C=C\CCCC(=O)O [arachidonic acid] | – | effect on Slo3 currents ([1]; 3 µM arachidonic acid, n = 7): did not affect
C[C@]12C[C@H](O)[C@H]3[C@@H](CCC4=CC(=O)CC[C@@]43C)[C@@H]1CC[C@@H]2C(=O)CO [corticosterone] | significantly decreased | IC50 [1, 3]: 58 ± 11 µM
C[C@]12CCC(=O)C=C1CC[C@@H]1[C@@H]2C(=O)C[C@@]2(C)[C@H]1CC[C@]2(O)C(=O)CO [cortisone] | ≤ 18% | –
C[C@]12CC[C@@H]3c4ccc(O)cc4CC[C@H]3[C@@H]1CC[C@@H]2O [estradiol] | significantly decreased | fold less potent than progesterone to activate CatSper [2]: around 100 fold; IC50 [1]: 8.9 ± 4.4 µM
C[C@]12CC[C@@H]3c4ccc(O)cc4CC[C@H]3[C@@H]1CCC2=O [estrone] | ≤ 18% | –
CC(=O)[C@H]1CC[C@H]2[C@@H]3CC=C4C[C@@H](O)CC[C@]4(C)[C@H]3CC[C@]12C [pregnenolone] | ≤ 18% | –
CC(=O)[C@H]1CC[C@H]2[C@@H]3CCC4=CC(=O)CC[C@]4(C)[C@H]3CC[C@]12C [progesterone] | significantly decreased | IC50 [1, 3]: 5.2 ± 2.9 µM
C[C@]12CC[C@H]3[C@@H](CCC4=CC(=O)CC[C@@]43C)[C@@H]1CC[C@@H]2O [testosterone] | significantly decreased | IC50 [1]: 17 ± 14 µM
